The NIST ThermoML archive (doi:10.1021/je049919e)

How the values were obtained:
[1] = xn = mol fraction of the nth substance listed; conditions: Ring tensiometer
[2] = Ring tensiometer

CC1CCCC(O)C1 (stereo not drawn) [3-methyl-1-cyclohexanol, (cis+trans)] + OCCO
surface tension liquid-gas [mN/m], [1]
Conditions	293.15 K	298.15 K	303.15 K	308.15 K	313.15 K	318.15 K	323.15 K
x1 = 0.05	36.72	36.51	36.29	36.07	35.88	35.66	35.44
x1 = 0.097	34.08	33.87	33.67	33.46	33.26	33.08	32.89
x1 = 0.258	31.57	31.25	30.97	30.7	30.42	30.15	29.91
x1 = 0.329	30.94	30.6	30.32	30.01	29.75	29.48	29.17
x1 = 0.389	30.57	30.23	29.98	29.65	29.38	29.09	28.76
x1 = 0.535	29.84	29.51	29.19	28.86	28.57	28.28	27.96
x1 = 0.623	29.39	29.05	28.75	28.43	28.14	27.82	27.42
x1 = 0.768	28.85	28.47	28.16	27.8	27.46	27.18	26.84
x1 = 0.864	28.43	28.02	27.68	27.34	27.03	26.69	26.33
x1 = 0.899	28.24	27.9	27.56	27.24	26.85	26.5	26.18
x1 = 1	27.82	27.48	27.12	26.76	26.4	26.06	25.7

OCCO [1,2-ethanediol] + CC1CCCCC1O
[1], x2 = 0
Conditions	surface tension liquid-gas [mN/m]
293.15 K	48.55
298.15 K	48.11
303.15 K	47.58
308.15 K	47.14
313.15 K	46.79
318.15 K	46.29
323.15 K	45.99

CC1CCC(O)CC1 (stereo not given) [4-methylcyclohexanol] + OCCO
surface tension liquid-gas [mN/m], [1]
Conditions	293.15 K	298.15 K	303.15 K	308.15 K	313.15 K	318.15 K	323.15 K
x1 = 0.05	38.1	37.85	37.64	37.39	37.15	36.9	36.69
x1 = 0.097	34.38	34.18	33.98	33.78	33.6	33.4	33.21
x1 = 0.258	32.47	32.24	32.03	31.79	31.57	31.34	31.1
x1 = 0.329	31.48	31.24	30.99	30.74	30.48	30.26	30.01
x1 = 0.389	30.64	30.37	30.08	29.81	29.55	29.32	29.04
x1 = 0.535	30.35	30.05	29.77	29.48	29.23	28.96	28.68
x1 = 0.623	29.63	29.34	29.02	28.74	28.48	28.18	27.88
x1 = 0.768	29.21	28.92	28.6	28.29	28.02	27.73	27.4
x1 = 0.864	28.71	28.41	28.07	27.76	27.47	27.18	26.84
x1 = 0.899	28.07	27.75	27.43	27.11	26.77	26.45	26.15
x1 = 1	27.63	27.3	26.98	26.61	26.31	25.96	25.63

OCCO [1,2-ethanediol]
[2]
Conditions	surface tension liquid-gas [mN/m]
293.15 K	48.55
298.15 K	48.11
303.15 K	47.58
308.15 K	47.14
313.15 K	46.79
318.15 K	46.29
323.15 K	45.99

OCCO [1,2-ethanediol] + CC1CCC(O)CC1
[1], x2 = 0
Conditions	surface tension liquid-gas [mN/m]
293.15 K	48.55
298.15 K	48.11
303.15 K	47.58
308.15 K	47.14
313.15 K	46.79
318.15 K	46.29
323.15 K	45.99

CC1CCCCC1O (stereo not given) [2-methylcyclohexanol]
[2]
Conditions	surface tension liquid-gas [mN/m]
293.15 K	31.01
298.15 K	30.57
303.15 K	30.19
308.15 K	29.81
313.15 K	29.37
318.15 K	28.98
323.15 K	28.57

CC1CCCCC1O (stereo not given) [2-methylcyclohexanol] + OCCO
surface tension liquid-gas [mN/m], [1]
Conditions	293.15 K	298.15 K	303.15 K	308.15 K	313.15 K	318.15 K	323.15 K
x1 = 0.04	40.61	40.3	39.94	39.67	39.4	39.13	38.89
x1 = 0.105	36.13	35.89	35.62	35.32	35.07	34.81	34.56
x1 = 0.2	34.46	34.17	33.85	33.55	33.26	32.98	32.68
x1 = 0.307	33.49	33.2	32.88	32.58	32.22	31.94	31.63
x1 = 0.399	32.94	32.61	32.26	31.96	31.62	31.31	30.97
x1 = 0.514	32.38	32.03	31.68	31.33	30.98	30.69	30.36
x1 = 0.553	32.22	31.87	31.54	31.19	30.81	30.49	30.13
x1 = 0.76	31.72	31.36	30.97	30.61	30.29	29.91	29.52
x1 = 0.791	31.51	31.1	30.73	30.38	30	29.59	29.24
x1 = 0.892	31.2	30.78	30.39	30.05	29.67	29.27	28.87
x1 = 1	31.01	30.57	30.19	29.81	29.37	28.98	28.57

CC1CCCC(O)C1 (stereo not drawn) [3-methyl-1-cyclohexanol, (cis+trans)]
[2]
Conditions	surface tension liquid-gas [mN/m]
293.15 K	27.82
298.15 K	27.48
303.15 K	27.12
308.15 K	26.76
313.15 K	26.4
318.15 K	26.06
323.15 K	25.7

OCCO [1,2-ethanediol] + CC1CCCC(O)C1
[1], x2 = 0
Conditions	surface tension liquid-gas [mN/m]
293.15 K	48.55
298.15 K	48.11
303.15 K	47.58
308.15 K	47.14
313.15 K	46.79
318.15 K	46.29
323.15 K	45.99

CC1CCC(O)CC1 (stereo not given) [4-methylcyclohexanol]
[2]
Conditions	surface tension liquid-gas [mN/m]
293.15 K	27.63
298.15 K	27.3
303.15 K	26.98
308.15 K	26.61
313.15 K	26.31
318.15 K	25.96
323.15 K	25.63
